The record followed here is patent US9708336B2, “Metallo-beta-lactamase inhibitors” (priority 2014, dated 2017).

Read-outs that look alike come from different tables or passages of the source.

One test deals with NDM-1 (Klebsiella pneumoniae, UniProt C7C422). Put plainly: biochemical. The test is classed as biochemical. To be noted: read-out: NDM-1 IC50.
The target of the next test is VIM-1 (Pseudomonas aeruginosa (strain ATCC 15692 / DSM 22644 / CIP 104116 / JCM 14847 / LMG 12228 / 1C / PRS 101 / PAO1), UniProt A0A0F7KYQ8). In words: Enzyme activity: determination of IC50, fluorescence assay with CCF2-FA substrate (VIM-1). It counts as biochemical.
Another test concerns the target IMP-1 (Serratia marcescens, UniProt P52699). In words: biochemical. The note with it: read-out: IMP-1 IC50. The test is classed as biochemical.
Test [1] has as its system Serratia marcescens expressing IMP-1 (CL5741). In words: Antibiotic potentiation activity: synergistic concentration (MITC95) with imipenem, OD600 growth. The test is classed as cell-based. The gist of the method: (§1)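 Spectrophotometric growth readings were taken following 22–24 h at 35 °C. Before that, organisms in 1.1× CAMHB were mixed with imipenem, used at 4 μg/ml in assay, and test compound.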

The subject of test [2] is Klebsiella pneumoniae expressing VIM-1 (IHMA599644). Described as above. The test is classed as cell-based. The gist of the method: as §1
In test [3] the test system is Escherichia coli expressing NDM-1 (CLB30016). The test is described as above. The test is classed as cell-based. The method in brief: as §1
Where [4] appears, read: NDM-1 enzyme, CCF2-FA substrate.
Where [5] appears, read: VIM-1 IC50, VIM-1 enzyme, CCF2-FA substrate.
Where [6] appears, read: IMP-1 enzyme, CCF2-FA substrate.
The mark [7] stands for this setting: Serratia marcescens CL5741 (IMP-1), 95% growth inhibition.
[8] abbreviates: Klebsiella pneumoniae IHMA599644 (VIM-1), 95% growth inhibition.
[9] abbreviates: (CLB30016, NDM-1), 95% growth inhibition.
Where [10] appears, read: VIM-1 enzyme, CCF2-FA substrate, read-out: VIM-1 IC50.
[11] abbreviates: NDM-1 enzyme, CCF2-FA fluorescence assay.
Where [12] appears, read: VIM-1 enzyme, CCF2-FA fluorescence assay, read-out: VIM-1 IC50.
Setting [13] is: IMP-1 enzyme, CCF2-FA fluorescence assay.
Setting [14] is: Serratia marcescens expressing IMP-1 (CL5741), 95% growth inhibition.
Where [15] appears, read: Klebsiella pneumoniae expressing VIM-1 (IHMA599644), 95% growth inhibition.
Where [16] appears, read: Escherichia coli expressing NDM-1 (CLB30016), 95% growth inhibition.
The mark [17] stands for this setting: fluorescence assay with CCF2-FA substrate.
Where [18] appears, read: fluorescence assay with CCF2-FA substrate, read-out: VIM-1 IC50.
Where [19] appears, read: CL5741 (IMP-1), 95% inhibition of bacterial growth.
Where [20] appears, read: IHMA599644 (VIM-1), 95% inhibition of bacterial growth.
Where [21] appears, read: CLB30016 (NDM-1), 95% inhibition of bacterial growth.

Sequence of IMP-1 (P52699 whole entry, looked up): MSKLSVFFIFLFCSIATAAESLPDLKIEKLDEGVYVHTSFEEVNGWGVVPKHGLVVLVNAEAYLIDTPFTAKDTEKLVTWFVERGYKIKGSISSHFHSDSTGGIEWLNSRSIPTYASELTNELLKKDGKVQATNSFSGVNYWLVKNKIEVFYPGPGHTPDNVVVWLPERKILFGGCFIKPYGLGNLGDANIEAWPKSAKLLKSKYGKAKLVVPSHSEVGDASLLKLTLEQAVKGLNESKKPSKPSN
Sequence of NDM-1 (C7C422 whole entry, looked up, species assumed): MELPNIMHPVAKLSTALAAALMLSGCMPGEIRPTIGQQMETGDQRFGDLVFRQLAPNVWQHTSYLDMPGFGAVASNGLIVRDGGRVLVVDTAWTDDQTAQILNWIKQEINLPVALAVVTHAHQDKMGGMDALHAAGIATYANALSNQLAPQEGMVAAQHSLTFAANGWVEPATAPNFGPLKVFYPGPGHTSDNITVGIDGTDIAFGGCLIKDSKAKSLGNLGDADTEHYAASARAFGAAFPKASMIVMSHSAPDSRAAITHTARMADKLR

Regarding `NC1CC(N[C@H]2CC[C@H](c3ccc(C(F)(F)F)c(S(N)(=O)=O)c3-c3nnn[nH]3)CC2)C1` (stereo partly drawn) [Example 694, 3-{4-[(3-aminocyclobutyl)amino]cyclohexyl}-2-(1H-tetrazol-5-yl)-6-(trifluoromethyl)benzene sulfonamide], the results for the IC50 on NDM-1 (setting [4]), at VIM-1 (setting [5]) and on IMP-1 (setting [6]) were 4.84 nM, 2.46 nM and 18.6 nM, respectively. The “Serratia marcescens MITC95” value in test [1] (setting [7]) came out at 1.563 µM. Further, the “Klebsiella pneumoniae MITC95” value in test [2] (setting [8]) is 1.563 µM. Besides, the “Escherichia coli MITC95” value in test [3] (setting [9]) worked out at 0.3906 µM.
Turning to `NS(=O)(=O)c1c(C(F)(F)F)ccc(-c2ccc(OC3CNC3)cc2)c1-c1nnn[nH]1` [Example 719, 4′-(azetidin-3-yloxy)-2-(1H-tetrazol-5-yl)-4-(trifluoromethyl)biphenyl-3-sulfonamide], the IC50 came to 3.04 nM at NDM-1 (setting [4]), 0.553 nM against VIM-1 (setting [5]) and 3.68 nM on IMP-1 (setting [6]). Moreover, the “Serratia marcescens MITC95” value in test [1] (setting [7]) turned out to be 3.125 µM. In addition, the “Klebsiella pneumoniae MITC95” value in test [2] (setting [8]) is 3.125 µM. In addition, in test [3] (setting [9]), the “Escherichia coli MITC95” value was found to be 3.125 µM.
As for `NCCS(=O)(=O)c1ccc(-c2ccc(C(F)(F)F)c(S(N)(=O)=O)c2-c2nnn[nH]2)cc1` [Example 736, 4′-[(2-aminoethyl)sulfonyl]-2-(1H-tetrazol-5-yl)-4-(trifluoromethyl)biphenyl-3-sulfonamide], the IC50 on NDM-1 (setting [4]) is 3.23 nM; at VIM-1 (setting [10]) it was 1.59 nM; on IMP-1 (setting [6]), 3.23 nM. The “Serratia marcescens MITC95” value in test [1] (setting [7]) was determined as 6.25 µM. The “Klebsiella pneumoniae MITC95” value in test [2] (setting [8]) was found to be 6.25 µM. Also, the “Escherichia coli MITC95” value in test [3] (setting [9]) came to 6.25 µM.
For `CS(=O)(=O)C1CN(c2ccc(-c3cccc(S(N)(=O)=O)c3-c3nnn[nH]3)cn2)C1` [Example 631, 3-[6-(3-methylsulfonylazetidin-1-yl)-3-pyridyl]-2-(1H-tetrazol-5-yl)benzenesulfonamide], the IC50 turned out to be 8.25 nM at NDM-1 (setting [4]), 110 nM at VIM-1 (setting [10]) and 39.9 nM on IMP-1 (setting [6]). For the same compound, the “Serratia marcescens MITC95” value in test [1] (setting [7]) was found to be 6.25 µM. The “Klebsiella pneumoniae MITC95” value in test [2] (setting [8]) was found to be 25 µM. In addition, the “Escherichia coli MITC95” value in test [3] (setting [9]) came to 1.953 µM.
On to `CCC(CO)NCc1ccc(-c2cccc(S(N)(=O)=O)c2-c2nnn[nH]2)cc1` (stereo in doubt) [Example 345, 4′-({[(1S)-1-(hydroxymethyl)propyl]amino}methyl)-2-(1H-tetrazol-5-yl)biphenyl-3-sulfonamide], for which the IC50 on NDM-1 (setting [11]) was determined as 18.5 nM; on VIM-1 (setting [12]), 269 nM; on IMP-1 (setting [13]) it was 213 nM. In test [1] (setting [14]), the “Serratia marcescens MITC95” value amounted to 4.688 µM. Also, the “Klebsiella pneumoniae MITC95” value in test [2] (setting [15]) worked out at 50 µM. Further, the “Escherichia coli MITC95” value in test [3] (setting [16]) was found to be 1.563 µM.
Regarding `NS(=O)(=O)c1c(C(F)(F)F)ccc([C@H]2CC[C@H](N[C@H]3CC[C@H]4CCN[C@H]4C3)CC2)c1-c1nnn[nH]1` [Example 679, 3-{4-[(3aS,6S,7aS)-octahydro-1H-indol-6-ylamino]cyclohexyl}-2-(1H-tetrazol-5-yl)-6-(trifluoromethyl)benzene sulfonamide], the results for the IC50 on NDM-1 (setting [4]), against VIM-1 (setting [5]) and at IMP-1 (setting [6]) were 19.8 nM, 21.2 nM and 75.3 nM, respectively. Further, the “Serratia marcescens MITC95” value in test [1] (setting [7]) was determined as 3.125 µM. Further, the “Klebsiella pneumoniae MITC95” value in test [2] (setting [8]) amounted to 50 µM. The “Escherichia coli MITC95” value in test [3] (setting [9]) was 1.563 µM.
For `NS(=O)(=O)c1c(C(F)(F)F)ccc(C2CCNc3ccccc32)c1-c1nnn[nH]1` (stereo not drawn) [Example 493, 3-(1,2,3,4-Tetrahydroquinolin-4-yl)-2-(1H-tetrazol-5-yl)-6-(trifluoromethyl)benzenesulfonamide], the IC50 came out at 1.69 nM on NDM-1 (setting [4]), 0.133 nM on VIM-1 (setting [10]) and 4.5 nM at IMP-1 (setting [6]). In addition, in test [1] (setting [7]), the “Serratia marcescens MITC95” value was determined as 0.3906 µM. The “Klebsiella pneumoniae MITC95” value in test [2] (setting [8]) turned out to be 3.125 µM. Further, the “Escherichia coli MITC95” value in test [3] (setting [9]) came out at 1.563 µM.
Take `N=C(N)N1CCC(N)(c2ccc(-c3ccc(C(F)(F)F)c(S(N)(=O)=O)c3-c3nn[nH]n3)cc2)CC1` [Example 438, 4-amino-4-(3′-sulfamoyl-2′-(2H-tetrazol-5-yl)-4′-(trifluoromethyl)-[1,1′-biphenyl]-4-yl)piperidine-1-carboximidamide]: the IC50 on NDM-1 (setting [11]) amounted to 3.67 nM; at VIM-1 (VIM-1 IC50, VIM-1 enzyme, CCF2-FA fluorescence assay), 10.8 nM; at IMP-1 (setting [13]), 4.05 nM. In test [1] (setting [14]), the “Serratia marcescens MITC95” value came to 0.25 µM. Further, in test [2] (setting [15]), the “Klebsiella pneumoniae MITC95” value worked out at 2.563 µM. Further, in test [3] (setting [16]), the “Escherichia coli MITC95” value was 0.125 µM.
Turning to `NS(=O)(=O)c1c(C(F)(F)F)ccc([C@H]2CC[C@@H](N)CC2)c1-c1nnn[nH]1` [Example 819, 3-((1s,4s)-4-aminocyclohexyl)-2-(1H-tetrazol-5-yl)-6-(trifluoromethyl)benzenesulfonamide], the figures for the IC50 on NDM-1 (setting [17]), at VIM-1 (setting [18]) and at IMP-1 (setting [17]) were 14.3 nM, 27.4 nM and 97.1 nM, respectively. Also, in test [1] (setting [19]), the “Serratia marcescens MITC95” value worked out at 1.823 µM. For the same compound, the “Klebsiella pneumoniae MITC95” value in test [2] (setting [20]) stood at 3.385 µM. In addition, in test [3] (setting [21]), the “Escherichia coli MITC95” value was found to be 0.8464 µM.
Regarding `NS(=O)(=O)c1c(C(F)(F)F)ccc(C2CCCCC2)c1-c1nnn[nH]1` [Example 491, 3-cyclohexyl-2-(1H-tetrazol-5-yl)-6-(trifluoromethyl)benzenesulfonamide], the values for the IC50 on NDM-1 (setting [4]), at VIM-1 (setting [10]) and at IMP-1 (setting [6]) were 0.435 nM, 0.505 nM and 1.11 nM, respectively. For the same compound, the “Serratia marcescens MITC95” value in test [1] (setting [7]) is 0.0625 µM. In test [2] (setting [8]), the “Klebsiella pneumoniae MITC95” value came to 3.792 µM. For the same compound, the “Escherichia coli MITC95” value in test [3] (setting [9]) was found to be 0.6406 µM.
Take `NC[C@H]1CC[C@H](Cc2ccc(-c3ccc(C4CCNCC4)cc3)c(-c3nn[nH]n3)c2S(N)(=O)=O)CC1` [Example 457, 4-(((1r,4r)-4-(aminomethyl)cyclohexyl)methyl)-4′-(piperidin-4-yl)-2-(2H-tetrazol-5-yl)-[1,1′-biphenyl]-3-sulfonamide]: the IC50 amounted to 1.1 nM at NDM-1 (setting [11]), 0.803 nM on VIM-1 (setting [12]) and 3.05 nM at IMP-1 (setting [13]). Moreover, the “Serratia marcescens MITC95” value in test [1] (setting [14]) came to 0.1953 µM. Besides, the “Klebsiella pneumoniae MITC95” value in test [2] (setting [15]) was found to be 1.172 µM. Further, the “Escherichia coli MITC95” value in test [3] (setting [16]) was found to be 0.3906 µM.
As for `NS(=O)(=O)c1c(C(F)(F)F)ccc(-c2ccc(C3CCN(C[C@H]4CCCN4)CC3)cc2)c1-c1nnn[nH]1` [Example 675, 4′-{1-[(2R)-pyrrolidin-2-ylmethyl]piperidin-4-yl}-2-(1H-tetrazol-5-yl)-4-(trifluoromethyl)biphenyl-3-sulfonamide], the IC50 on NDM-1 (setting [4]) amounted to 4.53 nM; against VIM-1 (setting [5]), 14.7 nM; on IMP-1 (setting [6]) it was 1.94 nM. In addition, in test [1] (setting [7]), the “Serratia marcescens MITC95” value turned out to be 6.25 µM. In test [2] (setting [8]), the “Klebsiella pneumoniae MITC95” value was 150 µM. For the same compound, in test [3] (setting [9]), the “Escherichia coli MITC95” value came out at 4.688 µM.
For `NS(=O)(=O)c1c(C(F)(F)F)ccc(N2CCCC3(CCNCC3)C2)c1-c1nnn[nH]1` [Example 772, 3-(2,9-diazaspiro[5.5]undec-2-yl)-2-(1H-tetrazol-5-yl)-6-(trifluoromethyl) benzenesulfonamide], the IC50 is 33.9 nM on NDM-1 (setting [17]), 13.9 nM at VIM-1 (setting [18]) and 114 nM on IMP-1 (setting [17]). Further, the “Serratia marcescens MITC95” value in test [1] (setting [19]) is 50 µM. The “Klebsiella pneumoniae MITC95” value in test [2] (setting [20]) is 50 µM. In test [3] (setting [21]), the “Escherichia coli MITC95” value came out at 12.5 µM.
